Assay results reported in US8466164B2.

Legend:
[1] = target: recombinant human Src (Homo sapiens, UniProt P12931); experiment: cell-free Src enzymatic assay; type: biochemical; details: calculated from ID50; triplicate, mean values; read-out: Ki toward recombinant human Src
[2] = system: Ba/F3 cells expressing mutated Bcr-Abl / IM-resistant cell lines; experiment: Annexin V/PI apoptotic assay on Ba/F3 cells; type: cell-based; details: 5 μM
Method: Apoptotic assay was performed on 1×10^6 cells and apoptotic cells were recognized by cytofluorimetric analysis of fluorescinated Annexin V (Roche) and PI uptake.

[3] = system: phosphorylation of Bcr-Abl (Tyr245), Src (Tyr416) and Lyn (Tyr507); experiment: western blot of kinase phosphorylation in Ba/F3 cells; type: cell-based; details: 5 μM, up to 24th h of exposure, Imatinib-sensitive and resistant contexts
Method: The inhibitory effects of S29 toward the phosphorylation of Bcr-Abl (Tyr245), Src (Tyr416) and Lyn (Tyr507) were assessed using western blot analysis. Whole cell lysates were obtained from 1×10^7 cells (either untreated or following 24 h and 48 h exposure to 5 μM S29) in lysis buffer.
Protein lysates from whole cells were incubated overnight with the primary antibodies (anti-Abl phosphorylated at Tyr245, Cell Signaling; anti-Src phosphorylated at Tyr416, Cell Signaling; anti-Lyn phosphorylated at Tyr507, Cell Signaling; anti-Lyn, Biosource; anti-Beta-actin, Santa Cruz Biotechnology) and then 1 h at rt with the secondary antibodies (Amersham). Beta actin was used for protein loading control. Signal intensities from 3 repeated blots were quantified by a GS-700 Imagining densitometer (BioRad) equipped with a dedicated software (Molecular Analyst).

[4] = system: Src-Y416 phosphorylation in SaOS-2; experiment: immunoblotting of phospho-Src-Y416 in SaOS-2; type: cell-based, human; details: SaOS-2, compounds at their IC50, 3 h
Method: Compounds were used at their corresponding IC50. Cells were treated for 3 h prior to their lysis. A) Specific c-Src phosphorylation was evaluated when whole-cell lysates were immunoprobed with anti-nonphospho-Src-Y416 and anti-phospho-Src-Y416 antibodies. B) Graph reports the optical density values relative to immunoreactive bands of phospho-Src-Y416. […] C) Graphical representation of SI-83 (magenta) into the ATP binding pocket of Src. The solvent accessible surface of residues is depicted (blue), while several amino acids, responsible for the major hydrophobic contacts with the binding site, are also shown (cyan).
For Phospho-SrcY416 detection, cells were lysed in ice-cold 0.1% SDS containing a cocktail of protease inhibitors and 1 mM sodium orthovanadate (Sigma-Aldrich). […] All antibodies employed were from Cell Signaling Technology ([…], USA). Proteins were probed with primary antibodies o.n. at 4° C., followed by secondary antibodies for 1 h at room temperature. Detection was obtained by ImmunoStar HRP™ (BioRad). Band areas were detected using ImageScanner™ (Amersham Bioscience, Little Chalfont, GB) and bands' optical densities were analysed by Image Master software (Amersham Bioscience). Band optical densities of Phospho-SrcY416 were normalized against those of total Src as an internal control.

[5] = system: SaOS-2 xenograft; experiment: SaOS-2 xenograft in nude mice; type: in vivo, CD 1 nude mice
Method: In order to evaluate the effect of SI-83 in a preclinical experimental model of osteosarcoma the authors injected s.c. SaOS-2 cells together with Matrigel in nude mice. […] The authors divided mice in three groups containing each 4 mice: mice receiving vehicle (control); mice receiving 50 mg/kg SI-83; mice receiving 100 mg/kg SI-83. The administration of SI-83 determined at endpoint a reduction in xenograft growth respect to control measured as weight reduction (FIG. 6B1). At the dose of 100 mg/kg, SI-83 determined a significant reduction (P<0.01) in tumour weight of about 40% respect to control tumours. Also the administration of 50 mg/kg SI-83 determined a smaller (about 15%) but significant reduction (p<0.05) in tumour volume respect to control (FIG. 6B1). Xenograft tissues were processed for histologic evaluation of phospho-Src expression (FIG. 6B3). Tumour cells in the control group expressed detectable levels of phospho-Src.
CD 1 nude mice (Charles River, Milan, Italy) were maintained under the guidelines established by the authors' Institution (University of L'Aquila, Medical School and Science and Technology School Board Regulations, complying with the Italian government regulation n.116 Jan. 27, 1992 for the use of laboratory animals). Before tumour cells implantation, mice were anesthesized with a mixture of ketamine (25 mg/mL)/xylazine (5 mg/mL). Xenografts were obtained by injecting s.c. 1×10^6 SaOS-2 cells in 100 μL of 12 mg/ml Matrigel (Becton Dickinson). Mice received daily the drug by per os administration at the doses indicated. Tumour growth was monitored daily and at the endpoint, after 26 days, the tumors were excided, weighted and processed for histology. Briefly tumors were fixed in 4% formaldehyde in 0.1 M phosphate buffer, pH 7.2 and embedded in paraffin. Slide-mounted tissue sections (4 μm thick) were deparaffinized in xylene and hydrated serially in 100, 95, and 80% ethanol. Endogenous peroxidases were quenched in 3% H2O2 in PBS for 1 h and then slides were incubated with anti human Src [pY416] phosphospecific antibody (Biosource, Camarillo, Calif., USA) for 1 h at room temperature.

[6] = system: mouse osteoclasts; experiment: osteoclast bone resorption assay; type: cell-based
Description: It is very important to note that there is a significant difference in bone resorption for the control (DMSO) in the two experiments reported in FIG. 4. […] The method used to measure bone resorption is based on the growth in vitro of osteoclasts that then resorb bone. However, this cell-based assay is usually characterized by a significant variability, mainly due to the fact that the basic amount of bone resorption can vary among replicates. Although such a limitation, this assay is widely recognized as the gold standard to assess the ability of compounds to inhibit bone resorption by osteoclasts.^53

[7] = system: MNNG cells; experiment: MTT cell viability assay on MNNG; type: cell-based, human; details: 48 h
[8] = system: TE-85; experiment: MTT cell viability assay on TE-85; type: cell-based, human; details: 48 h
[9] = system: U-20S; experiment: MTT cell viability assay on U-20S; type: cell-based, human; details: 48 h
[10] = system: MG63; experiment: MTT cell viability assay on MG63; type: cell-based, human; details: 48 h
[11] = system: SaOS-2 cells; experiment: TUNEL assay on SaOS-2; type: cell-based, human; details: 48 h treatment, 12.5 μM
[12] = in vitro; details: male, human, primary human osteoblasts
[13] = system: SaOS-2 cells; experiment: MTT cell viability assay on SaOS-2; details: for CV (%) after 24 h (cellular viability with respect to control): 24 h treatment; for CV (%) after 24 h (cellular viability with respect to control) / CV (%) after 48 h (cellular viability with respect to control): control = 100%, mean ± SD; for CV (%) after 48 h (cellular viability with respect to control): 48 h treatment, 25 μM; for IC50: read-out: IC50 on SaOS-2 cell viability, MTT, 1-100 μM, 48 h
[14] = system: human primary osteoblasts; experiment: Hoechst staining of primary osteoblasts; details: 25 μM
[15] = system: normal human osteoblasts; experiment: nodule formation and mineralization (alizarin red S); details: IC5, IC20, IC50 (SaOS-2); for tolerance of treatment by osteoblasts: three weeks
[16] = system: primary human osteoblasts; experiment: MTT cell viability assay on primary human osteoblasts; details: 48 h; for reduction of osteoblast growth (inhibitory activity): 25 μM
[17] = system: primary human osteoblasts; experiment: flow cytometric apoptosis analysis on primary osteoblasts; details: for reduction of pro-apoptotic effect on osteoblasts respecting to SaOS-2: at IC50 (determined on SaOS-2), 48 h
[18] = system: SaOS-2 cells; experiment: flow cytometric cell cycle/apoptosis analysis on SaOS-2; details: 48 h, 3 μM to 100 μM

recombinant human Src, sequence (P12931 whole entry): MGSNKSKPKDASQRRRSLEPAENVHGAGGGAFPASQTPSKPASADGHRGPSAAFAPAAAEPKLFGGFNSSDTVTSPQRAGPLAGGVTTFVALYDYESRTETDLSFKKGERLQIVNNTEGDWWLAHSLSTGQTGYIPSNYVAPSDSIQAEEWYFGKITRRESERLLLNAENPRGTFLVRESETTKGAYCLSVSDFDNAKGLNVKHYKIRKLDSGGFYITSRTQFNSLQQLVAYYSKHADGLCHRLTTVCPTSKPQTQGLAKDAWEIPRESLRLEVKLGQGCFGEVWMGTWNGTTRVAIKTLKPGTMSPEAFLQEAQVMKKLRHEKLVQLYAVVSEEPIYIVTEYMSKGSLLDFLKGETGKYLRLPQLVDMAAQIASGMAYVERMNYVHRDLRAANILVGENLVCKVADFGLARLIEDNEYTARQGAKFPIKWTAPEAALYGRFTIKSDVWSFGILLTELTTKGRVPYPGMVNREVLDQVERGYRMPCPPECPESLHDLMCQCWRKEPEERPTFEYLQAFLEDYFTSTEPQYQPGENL

For `Fc1ccc(CNc2ncnc3c2cnn3CC(Cl)c2ccc(Cl)cc2)cc1` (centres unmarked) [S-29], the Ki [1] was 0.5 µM, the apoptosis induction ([2]; IM-resistant cell lines additioned with IL-3, after 24 h of exposure) was “apoptosis occurred” and the apoptosis induction ([2]; mutated cell lines, after 48 h treatment) was “induced apoptotic death”. The “Bcr-Abl and Lyn-Src kinase phosphorylation” value [3] was “Complementary abrogation”.
With `CSc1nc(Nc2cccc(Cl)c2)c2cnn(CC(Cl)c3ccccc3)c2n1` (centres unmarked) [SI-83] the Ki [1] was 0.6 µM, the “inhibition of phosphorylation of Src at Y416” value [4] was 55% and the “reduction in tumour volume respect to control” value ([5]; 50 mg/kg daily per os, endpoint day 26, p<0.05) was “about 15%”. For the same compound, the “reduction in tumour weight respect to control” value ([5]; 100 mg/kg daily per os, endpoint day 26, P<0.01) was “about 40%”, the “signs of distress or loss of weight in mice” value ([5]; daily administration) was “did not determine any appreciable sign of distress or loss of weight” and the “phospho-Src staining of tumour tissues” value ([5]; treated groups, immunohistology Src [pY416]) was “faint or null staining”. For the same compound, the bone resorption ([6]; 10 and 1 μM) was “abrogate bone resorption”, the “percent inhibition of bone resorption” value ([6]; reduced test dose (up to 1 nM)) was “lower but significant” and the “response of cell viability compared with SaOS-2” value [7] was “even more responsive than SaOS-2”. For the same compound, the “response of cell viability” value [8] was “less susceptible”, the “response of cell viability” value [9] was “less susceptible” and the “response of cell viability” value [10] was “less susceptible”. For the same compound, the “pro-apoptotic effect (TUNEL)” value [11] was “strongest pro-apoptotic effect”, the viability at 48 h, 25 µM [12] was ~80% and the “CV (%) after 24 h (cellular viability with respect to control)” value ([13]; SaOS-2, MTT) was 17.1 ± 1.3%. The “CV (%) after 48 h (cellular viability with respect to control)” value ([13]; SaOS-2, MTT) was 15.1 ± 0.7%, the IC50 [13] was 12.6 µM and the “cell morphology / DNA damage (Hoechst)” value [14] was “did not alter cell morphology or cause DNA damage”. The “tolerance of treatment by osteoblasts” value [15] was “better tolerated”, the osteoblast viability ([16]; 12.5 μM) was “not affected at all” and the “reduction of osteoblast growth (inhibitory activity)” value [16] was 20%. The “reduction of pro-apoptotic effect on osteoblasts respecting to SaOS-2” value [17] was 79% and the “apoptosis induced in osteoblasts respecting to PP2” value ([17]; at respective IC50, time course 24, 48, 96 h) was “half of apoptosis”.
In the case of `CC(C)(C)n1nc(-c2ccc(Cl)cc2)c2c(N)ncnc21` [PP2, reference compound], the “inhibition of phosphorylation of Src at Y416” value [4] is reported as 50%, the “pro-apoptotic effect (TUNEL)” value [11] is reported as “induced apoptosis” and the “concentration at which 83% inhibition of cell viability is obtained” value ([13]; SaOS-2, MTT) is reported as “higher than 50 μM”. For the same compound, the “CV (%) after 24 h (cellular viability with respect to control)” value ([13]; SaOS-2, MTT) was 36.8 ± 1.7%, the “CV (%) after 48 h (cellular viability with respect to control)” value ([13]; SaOS-2, MTT) was 36.4 ± 1.6% and the IC50 [13] was 8.07 µM. The “tolerance of treatment by osteoblasts” value [15] was “did not tolerate drug treatment”, the “percentage of Ca2+ inside calcification nodules” value ([15]; twice a week, 1-3 weeks) was “always lower than control” and the “reduction of osteoblast growth (inhibitory activity)” value [16] was 50%. The cell cycle progression [18] was “stop cell cycle progression in G0 and G1 phases in a dose-dependent manner” and the “reduction of pro-apoptotic effect on osteoblasts respecting to SaOS-2” value [17] was 15%.
